This is an account of results in ChEMBL document CHEMBL4043145, “Pyridine-pyrimidine amides that prevent HGF-induced epithelial scattering by two distinct mechanisms” (Bioorg Med Chem Lett, 2017).

Type in all cases: functional
The test system of assay [1] is MFE-280. As to the kind of experiment: Induction of apoptosis in human MFE280 cells assessed as early apoptotic cells at 1000 nM by 7-AAD/Annexin staining-based assay (reference value: 5.1 to 6.2%).
Assay [2] has as its system MFE-280. As to the kind of experiment: Cell cycle arrest in human MFE280 cells assessed as accumulation at S phase at 100 nM (reference value: 14.14 to 15.66%).
In assay [3] the test system is PC-3. The assay can be described thus: Cell cycle arrest in human p53-null PC3 cells assessed as accumulation at S phase at 300 nM (reference value: 29.08 to 29.33%).
The test system of assay [4] is MFE-296. As to the kind of experiment: Cell cycle arrest in human MFE296 cells assessed as accumulation at G2/M phase at 1000 nM (reference value: 15.71 to 17.04%).
The test system of assay [5] is MFE-280. The assay can be described thus: Induction of apoptosis in human MFE280 cells assessed as late apoptotic cells at 300 nM by 7-AAD/Annexin staining-based assay (reference value: 6 to 7.4%).
The test system of assay [6] is MFE-296. As to the kind of experiment: Cell cycle arrest in human MFE296 cells assessed as accumulation at G1 phase at 1000 nM (reference value: 61.05 to 64.87%).
The next assay has as its system MCF7. The assay can be described thus: Cell cycle arrest in human MCF7 cells assessed as accumulation at G1 phase at 100 nM (reference value: 47.47 to 52.3%).
The subject of assay [7] is T47D. The assay can be described thus: Cell cycle arrest in human T47D cells assessed as accumulation at G2/M phase at 100 nM (reference value: 20.58 to 28.8%).
Assay [8] relates to T47D. The assay can be described thus: Cell cycle arrest in human T47D cells assessed as accumulation at S phase at 100 nM (reference value: 19.89 to 24.55%).
Assay [9] relates to T47D. The assay can be described thus: Cell cycle arrest in human T47D cells assessed as accumulation at G2/M phase at 1000 nM (reference value: 20.58 to 28.8%).
In assay [10] the test system is T47D. The assay can be described thus: Cell cycle arrest in human T47D cells assessed as accumulation at G1 phase at 1000 nM (reference value: 45.5 to 57.8%).
Assay [11] concerns A2780. As to the kind of experiment: Cell cycle arrest in human A2780 cells assessed as accumulation at G1 phase at 1000 nM (reference value: 55.26 to 55.66%).
The test system of assay [12] is PC-3. As to the kind of experiment: Cell cycle arrest in human p53-null PC3 cells assessed as accumulation at G2/M phase at 100 nM (reference value: 18.37 to 18.96%).
Assay [13] relates to MFE-280. The assay can be described thus: Cell cycle arrest in human MFE280 cells assessed as accumulation at S phase at 1000 nM (reference value: 14.14 to 15.66%).
Assay [14] concerns MFE-280. The assay can be described thus: Cell cycle arrest in human MFE280 cells assessed as accumulation at S phase at 300 nM (reference value: 14.14 to 15.66%).
The test system of assay [15] is A2780. As to the kind of experiment: Cell cycle arrest in human A2780 cells assessed as accumulation at G2/M phase at 100 nM (reference value: 19.42 to 20.43%).
Assay [16] concerns A2780. As to the kind of experiment: Cell cycle arrest in human A2780 cells assessed as accumulation at S phase at 100 nM (reference value: 21.16 to 22.81%).
Assay [17] has as its system MFE-280. As to the kind of experiment: Induction of apoptosis in human MFE280 cells assessed as early apoptotic cells at 300 nM by 7-AAD/Annexin staining-based assay (reference value: 5.1 to 6.2%).

In the case of `O=C(Nc1ccc(-c2cccc(Cl)c2)cn1)c1cncnc1`, the Activity in the assay with MFE-280 [1] stood at 5.9%; in the assay with MFE-280 [2] it was 18.71%; with PC-3 [3] it was 22.85%; in the assay with MFE-296 [4], 72.12%; in the assay with MFE-280 [5] it was 9.5%; in the assay on MFE-296 [6], 8.62%. For the same compound, the Activity was 43.58% with MCF7; 19.68% in the assay on T47D [7]; 22.91% in the assay with T47D [8]; 43.07% in the assay on T47D [9]; 31.65% in the assay on T47D [10]; 13.03% in the assay with A2780 [11]. Also, the Activity with PC-3 [12] is recorded as 25.26%; in the assay with MFE-280 [13], 18.57%; with MFE-280 [14] it was 21.09%; in the assay on A2780 [15], 20.89%; with A2780 [16] it was 18.92%; in the assay on MFE-280 [17] it was 5.4%.
